# Results reported in patent US11130741B2 (Bioimics AB, priority 2016, dated 2021).
# Structures can show the parent of a compound that is named as a salt. Where two headings read alike, the source gives them in different places.
# Assays:
# [1] = test system: Staphylococcus aureus (ATCC25923); assay: MIC, broth microdilution (CLSI), Staphylococcus aureus ATCC25923
# [2] = test system: E. coli RNase P RNA, M1 RNA; assay: Inhibition of bacterial RNase P activity, IC50 determination (cleavage of pATSerUG by M1 RNA); format: biochemical; conditions: NI = No inhibition
# [3] = test system: Escherichia coli (ATCC25922); assay: MIC, broth microdilution (CLSI), Escherichia coli ATCC25922
# [4] = ATCC25923, read-out: S. aureus ("Clinical") MIC
# [5] = ATCC25922, read-out: E. coli MIC, Table 15, NI = No inhibition
SMILES,"MIC [1, 4] [µg/mL]",IC50 [2] [µM],"MIC [3, 5] [µg/mL]","MIC ([1]; ATCC25923, read-out: S. aureus (""Clinical"") MIC, Table 15) [µg/mL]",IC50 ([2]; trifluoroacetate) [µM],"MIC ([3]; ATCC25922, read-out: E. coli MIC) [µg/mL]"
"CN1CCN(CCCN2c3ccccc3Sc3cc(C(F)(F)F)cc(N)c32)CC1 [compound 88, 10-(3-(4-methylpiperazin-1-yl)propyl)-3-(trifluoromethyl)-10H-phenothiazin-1-amine]",27,> 100,> 100,–,–,–
"NCC1CCC(CNc2cc(C(F)(F)F)cc3c2Nc2ccccc2S3)CC1 (stereo not drawn) [compound 158, N-((4-(aminomethyl)cyclohexyl)methyl)-3-(trifluoromethyl)-10H-phenothiazin-1-amine]",3,53,52,–,–,–
"NC1CCCC(Nc2cc(C(F)(F)F)cc3c2Nc2ccccc2S3)C1 (stereo not drawn) [compound 204, N1-(3-(trifluoromethyl)-10H-phenothiazin-1-yl)cyclohexane-1,3-diamine]",3,8,12,–,–,–
"FC(F)(F)c1cc(NC2CCCNC2)c2c(c1)Sc1ccccc1N2 (stereo not drawn) [compound 172, N-(piperidin-3-yl)-3-(trifluoromethyl)-10H-phenothiazin-1-amine]",6,27,23,–,–,–
"N#Cc1cc(NC2CCN(CCN)CC2)c2c(c1)Sc1ccccc1N2 [compound 215, 1-((1-(2-aminoethyl)piperidin-4-yl)amino)-10H-phenothiazine-3-carbonitrile]",23,> 100,47,–,–,–
"N[C@H]1CCC[C@H](CNc2cc(C(F)(F)F)cc3c2Nc2ccccc2S3)C1.O=C(O)C(F)(F)F [compound 187, N-(((1S,3S)-3-aminocyclohexyl)methyl)-3-(trifluoromethyl)-10H-phenothiazin-1-amine 2,2,2-trifluoroacetate]",4,53,16,–,–,–
"FC(F)(F)c1cc(NC2CCNCC2)cc2c1Nc1ccccc1S2 [compound 240, N-(piperidin-4-yl)-1-(trifluoromethyl)-10H-phenothiazin-3-amine]",23,62,> 100,–,–,–
"N[C@H]1CCC[C@@H](CNc2cc(C(F)(F)F)cc3c2Nc2ccccc2S3)C1 [compound 182, N-(((1R,3S)-3-aminocyclohexyl)methyl)-3-(trifluoromethyl)-10H-phenothiazin-1-amine]",3,61,25,–,–,–
"CN(C)CCCN1c2ccccc2Sc2cc(-c3nc4ccccc4[nH]3)ccc21 [compound 137, 3-(3-(1H-benzo[d]imidazol-2-yl)-10H-phenothiazin-10-yl)-N,N-dimethylpropan-1-amine]",13,160,> 100,–,–,–
"CN(C)CCCN1c2ccccc2Sc2cc(-c3cc4cc(O)ccc4[nH]3)ccc21 [compound 152, 2-(10-(3-(dimethylamino)propyl)-10H-phenothiazin-3-yl)-1H-indol-5-ol]",13,> 100,> 100,–,–,–
"NCCN1CCCC(CNc2cc(C(F)(F)F)cc3c2Nc2ccccc2S3)C1 (stereo not drawn) [compound 220, N-((1-(2-aminoethyl)piperidin-3-yl)methyl)-3-(trifluoromethyl)-10H-phenothiazin-1-amine]",7,> 100,7,–,–,–
"NCCN1CCC(Nc2cc(C(F)(F)F)cc3c2Nc2ccc(Cl)cc2S3)CC1 [compound 226, N-(1-(2-Aminoethyl)piperidin-4-yl)-7-chloro-3-(trifluoromethyl)-10H-phenothiazin-1-amine]",4,23,14,–,–,–
"CC(Nc1cc(C(F)(F)F)cc2c1Nc1ccccc1S2)C1CCCC(N)C1 (stereo not drawn) [compound 190, N-(1-(3-aminocyclohexyl)ethyl)-3-(trifluoromethyl)-10H-phenothiazin-1-amine]",3,82,26,–,–,–
"O=C(Nc1cc(C(F)(F)F)cc2c1Nc1ccccc1S2)C1CCCNC1 (stereo not drawn) [compound 91, N-(3-(trifluoromethyl)-10H-phenothiazin-1-yl)piperidine-3-carboxamide]",8,> 100,32,–,–,–
"N[C@H]1CCC[C@@H](C(=O)Nc2cc(C(F)(F)F)cc3c2Nc2ccccc2S3)C1 [compound 118, (1R,3S)-3-amino-N-(3-(trifluoromethyl)-10H-phenothiazin-1-yl)cyclohexane-carboxamide]",13,17,26,–,–,–
"COc1ccc2[nH]c(-c3ccc4c(c3)Sc3ccccc3N4CCCN(C)C)cc2c1 [compound 144, 3-(3-(5-methoxy-1H-indol-2-yl)-10H-phenothiazin-10-yl)-N,N-dimethylpropan-1-amine]",3,> 100,> 100,–,–,–
"FC(F)(F)c1cc(NC2CCCNCC2)c2c(c1)Sc1ccccc1N2 (stereo not drawn) [compound 221, N-(azepan-4-yl)-3-(trifluoromethyl)-10H-phenothiazin-1-amine]",6,> 100,24,–,–,–

SMILES,"MIC [1, 4] [µg/mL]",IC50 [2] [µM],"MIC [3, 5] [µg/mL]","MIC ([1]; ATCC25923, read-out: S. aureus (""Clinical"") MIC, Table 15) [µg/mL]",IC50 ([2]; trifluoroacetate) [µM],"MIC ([3]; ATCC25922, read-out: E. coli MIC) [µg/mL]"
"NC[C@H]1CCC[C@H](CNc2cc(C(F)(F)F)cc3c2Nc2ccccc2S3)C1 [compound 189, N-(((1S,3S)-3-(aminomethyl)cyclohexyl)methyl)-3-(trifluoromethyl)-10H-phenothiazin-1-amine]",3,> 100,52,–,–,–
"CN(C)CCCN1c2ccccc2Sc2cc(-c3cccc4cn[nH]c34)ccc21 [compound 129, 3-(3-(1H-indazol-7-yl)-10H-phenothiazin-10-yl)-N,N-dimethylpropan-1-amine]",6,> 100,> 100,–,–,–
NCCN1CC(C(=O)Nc2cc(C(F)(F)F)cc3c2Nc2ccccc2S3)C1 [compound 196],26,> 100,52,–,–,–
"CN(C)CCCN1c2ccccc2Sc2cc(-c3ccc4[nH]ccc4c3)ccc21 [compound 121, 3-(3-(1H-indol-5-yl)-10H-phenothiazin-10-yl)-N,N-dimethylpropan-1-amine]",6,> 100,> 100,–,–,–
"NC1CCC(C(=O)Nc2cc(C(F)(F)F)cc3c2Nc2ccccc2S3)CC1 (stereo not drawn) [compound 95, 4-amino-N-(3-(trifluoromethyl)-10H-phenothiazin-1-yl)cyclohexane-carboxamide]",32,94,64,–,–,–
"NCCN1CCC(Nc2cc(C(F)(F)F)cc3c2Nc2ccc(CN)cc2S3)CC1.O=C(O)C(F)(F)F.O=C(O)C(F)(F)F [compound 227, N-(1-(2-Aminoethyl)piperidin-4-yl)-7-(aminomethyl)-3-(trifluoromethyl)-10H-phenothiazin-1-amine bis(2,2,2-trifluoroacetate)]",5,7,43,–,–,–
"CN(C)CCCN1c2ccccc2Sc2cc(-c3ccc4[nH]cnc4c3)ccc21 [compound 117, 3-(3-(1H-benzo[d]imidazol-5-yl)-10H-phenothiazin-10-yl)-N,N-dimethylpropan-1-amine]",26,> 100,> 100,–,–,–
"FC(F)(F)c1cc(NC2CCNCC2)c2c(c1)Sc1cc(Cl)ccc1N2 [compound 223, 7-chloro-N-(piperidin-4-yl)-3-(trifluoromethyl)-10H-phenothiazin-1-amine]",3,24,6,–,–,–
"CC(N)CC(=O)Nc1cc(C(F)(F)F)cc2c1N(CCCN(C)C)c1ccccc1S2 (stereo not drawn) [compound 90, 3-amino-N-(10-(3-(dimethylamino)propyl)-3-(trifluoromethyl)-10H-phenothiazin-1-yl)butanamide]",64,> 100,> 100,–,–,–
"NNC(=O)c1cc(NC2CCNCC2)c2c(c1)Sc1ccccc1N2.O=C(O)C(F)(F)F [compound 210, 1-(piperidin-4-ylamino)-10H-phenothiazine-3-carbohydrazide 2,2,2-trifluoroacetate salt]",60,95,> 100,–,–,–
"CN(C)CCCN1c2ccccc2Sc2cc(-c3ccccc3)ccc21 [compound 110, N,N-dimethyl-3-(3-phenyl-10H-phenothiazin-10-yl)propan-1-amine]",6,> 100,> 100,–,–,–
"NCCN1CCC(C(=O)Nc2cc(C(F)(F)F)cc3c2Nc2ccccc2S3)CC1 [compound 155, trifluoroacetate]",–,–,–,35,53,35
"FC(F)(F)c1cc(NC[C@@H]2COCCN2)c2c(c1)Sc1ccccc1N2 [compound 159, (R)-N-(morpholin-3-ylmethyl)-3-(trifluoromethyl)-10H-phenothiazin-1-amine]",12,> 100,> 100,–,–,–
"NC1CCCC(c2nc3cc(C(F)(F)F)cc4c3n2-c2ccccc2S4)C1 (stereo not drawn) [compound 191, 3-(4-(trifluoromethyl)imidazo[4,5,1-kl]phenothiazin-1-yl)cyclohexan-amine]",6,19,50,–,–,–
"O=C(Nc1cc(C(F)(F)F)cc2c1Nc1ccccc1S2)[C@H]1CCCNC1 [compound 106, N-(3-(trifluoromethyl)-10H-phenothiazin-1-yl)piperidine-3-carboxamide]",32,> 100,64,–,–,–
"Nc1cccc(C(=O)Nc2cc(C(F)(F)F)cc3c2Nc2ccccc2S3)c1 [compound 134, 3-amino-N-(3-(trifluoromethyl)-10H-phenothiazin-1-yl)benzamide]",6,> 100,> 100,–,–,–
"NC1CC(C(=O)Nc2cc(C(F)(F)F)cc3c2Nc2ccccc2S3)C1 (stereo not drawn) [compound 175, 3-amino-N-(3-(trifluoromethyl)-10H-phenothiazin-1-yl)cyclobutane-carboxamide]",24,80,49,–,–,–
